The results in this text go back to patent US6426360B1, “4,5-substituted imidazolyl compounds for the treatment of inflammation” (G D Searle & Co., priority 1994, dated 2002).

Some results are limits rather than exact numbers.

The target in one data set is T1, Human COX II (Homo sapiens, UniProt P35354).
T1 construct: A 2.0 kb fragment containing the coding region of either human or murine COX-I or human or murine COX-II; made in house; host or cells: SF9 insect cells (recombinant baculovirus, transfer vector pVL1393)
T1 sequence (P35354 18-604): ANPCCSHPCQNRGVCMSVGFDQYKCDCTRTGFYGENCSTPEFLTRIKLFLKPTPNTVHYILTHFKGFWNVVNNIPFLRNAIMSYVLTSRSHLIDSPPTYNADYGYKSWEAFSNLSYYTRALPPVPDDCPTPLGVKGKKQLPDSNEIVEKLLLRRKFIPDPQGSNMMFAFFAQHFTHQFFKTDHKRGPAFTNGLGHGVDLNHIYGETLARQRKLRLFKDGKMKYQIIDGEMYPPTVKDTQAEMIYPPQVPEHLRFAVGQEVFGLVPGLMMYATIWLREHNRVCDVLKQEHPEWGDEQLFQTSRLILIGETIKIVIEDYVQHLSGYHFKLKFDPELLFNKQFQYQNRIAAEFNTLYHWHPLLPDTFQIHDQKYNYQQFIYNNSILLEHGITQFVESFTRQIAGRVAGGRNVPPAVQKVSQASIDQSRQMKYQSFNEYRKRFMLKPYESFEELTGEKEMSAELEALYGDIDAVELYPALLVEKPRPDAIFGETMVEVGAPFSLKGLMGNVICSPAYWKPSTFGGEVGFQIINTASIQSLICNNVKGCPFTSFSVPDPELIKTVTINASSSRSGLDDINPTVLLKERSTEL
Description: COX II activity in vitro (PGE2 ELISA, recombinant enzyme). It counts as biochemical. As to conditions: arachidonic acid 10 μM, pre-incubation 10-20 minutes; read-out: Human COX II ID50. The procedure:
The COX II inhibition activity of the compounds of this invention illustrated in the Examples was determined by the following methods.
(§1) A 2.0 kb fragment containing the coding region of either human or murine COX-I or human or murine COX-II was cloned into a BamH1 site of the baculovirus transfer vector pVL1393 (Invitrogen) to generate the baculovirus transfer vectors for COX-I and COX-II in a manner similar to the method of D. R. O'Reilly et al (Baculovirus Expression Vectors: A Laboratory Manual (1992)). Recombinant baculoviruses were isolated by transfecting 4 μg of baculovirus transfer vector DNA into SF9 insect cells ([…]) along with 200 ng of linearized baculovirus plasmid DNA by the calcium phosphate method. See M. D. Summers and G. E. Smith, A Manual of Methods for Baculovirus Vectors and Insect Cell Culture Procedures, Texas Agric. Exp. Station Bull. 1555 (1987). Recombinant viruses were purified by three rounds of plaque purification and high titer (10E7-10E8 pfu/ml), stocks of virus were prepared. For large scale production, SF9 insect cells were infected in 10 liter fermentors (0.5×10^6/ml) with the recombinant baculovirus stock such that the multiplicity of infection was 0.1. After 72 hours the cells were centrifuged and the cell pellet homogenized in Tris/Sucrose (50 mM: 25%, pH 8.0) containing 1% 3-[(3-cholamidopropyl)dimethylammonio]-1-propanesulfonate (CHAPS). The homogenate was centrifuged at 10,000×G for 30 minutes, and the resultant supernatant was stored at −80° C. before being assayed for COX activity.
(§2) COX activity was assayed as PGE2 formed/μg protein/time using an ELISA to detect the prostaglandin released. CHAPS-solubilized insect cell membranes containing the appropriate COX enzyme were incubated in a potassium phosphate buffer (50 mM, pH 8.0) containing epinephrine, phenol, and heme with the addition of arachidonic acid (10 μM). Compounds were pre-incubated with the enzyme for 10-20 minutes prior to the addition of arachidonic acid. Any reaction between the arachidonic acid and the enzyme was stopped after ten minutes at 37° C./room temperature by transferring 40 μl of reaction mix into 160 μl ELISA buffer and 25 μM indomethacin. The PGE2 formed was measured by standard ELISA technology (Cayman Chemical).
Regarding `Cc1nc(-c2ccc(S(C)(=O)=O)cc2)c(-c2ccc(F)cc2)[nH]1` [Example 6, 5-(4-Fluorophenyl)-2-methyl-4-(4-methylsulfonylphenyl)-1H-imidazole], the IC50 was determined as 4.6 µM. On the same count and under the same terms, in the case of `CS(=O)(=O)c1ccc(-c2nc(C(F)(F)F)[nH]c2-c2ccc(Cl)cc2)cc1` [Example 11, 5-(4-Chlorophenyl)-4-[4-(methylsulfonyl)phenyl]-2-(trifluoromethyl)-1H-imidazole] it was 0.4 µM.

The target of another data set is T2, Human COX I (Homo sapiens, UniProt P23219).
T2 construct: A 2.0 kb fragment containing the coding region of either human or murine COX-I or human or murine COX-II; made in house; host or cells: SF9 insect cells (recombinant baculovirus, transfer vector pVL1393)
T2 sequence (P23219 24-599): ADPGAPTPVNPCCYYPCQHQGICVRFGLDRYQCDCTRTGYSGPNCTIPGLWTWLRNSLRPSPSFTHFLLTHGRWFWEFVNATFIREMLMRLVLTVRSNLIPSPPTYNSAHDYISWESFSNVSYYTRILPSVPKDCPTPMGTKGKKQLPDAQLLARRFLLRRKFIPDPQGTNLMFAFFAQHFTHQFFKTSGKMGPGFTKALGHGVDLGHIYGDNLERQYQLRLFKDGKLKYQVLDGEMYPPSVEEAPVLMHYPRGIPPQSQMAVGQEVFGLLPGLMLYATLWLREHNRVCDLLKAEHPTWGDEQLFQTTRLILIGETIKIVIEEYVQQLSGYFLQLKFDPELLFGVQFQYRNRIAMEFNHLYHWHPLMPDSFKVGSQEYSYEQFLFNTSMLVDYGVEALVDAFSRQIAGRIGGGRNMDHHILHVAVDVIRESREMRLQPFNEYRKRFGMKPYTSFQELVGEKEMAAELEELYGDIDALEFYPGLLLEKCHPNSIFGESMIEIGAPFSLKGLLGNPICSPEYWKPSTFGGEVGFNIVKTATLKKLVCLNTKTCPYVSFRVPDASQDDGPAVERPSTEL
Nature of the data set: COX I activity in vitro (PGE2 ELISA, recombinant enzyme). It is filed as biochemical. To be noted: arachidonic acid 10 μM, pre-incubation 10-20 minutes; read-out: Human COX I ID50. How it is done:
as §1, §2
In the case of `Cc1nc(-c2ccc(S(C)(=O)=O)cc2)c(-c2ccc(F)cc2)[nH]1` [Example 6, 5-(4-Fluorophenyl)-2-methyl-4-(4-methylsulfonylphenyl)-1H-imidazole], the IC50 is greater than 100 µM. On the same count and under the same terms, the same measure for `CS(=O)(=O)c1ccc(-c2nc(SCc3ccccc3)[nH]c2-c2ccc(F)cc2)cc1` [Example 8, 2-Benzylthio-5-(4-fluorophenyl)-4-[4-(methylsulfonyl)phenyl]-1H-imidazole]: 2.1 µM; for `CS(=O)(=O)c1ccc(-c2nc(C(F)(F)F)[nH]c2-c2ccc(Cl)cc2)cc1` [Example 11, 5-(4-Chlorophenyl)-4-[4-(methylsulfonyl)phenyl]-2-(trifluoromethyl)-1H-imidazole]: 10.4 µM; for `CS(=O)(=O)c1ccc(-c2nc(C(F)(F)F)[nH]c2-c2ccc(Cl)c(Cl)c2)cc1` [Example 13, 5-(3,4-Dichlorophenyl)-4-[4-(methylsulfonyl)phenyl]-2-(trifluoromethyl)-1H-imidazole]: 9.6 µM. Take `NS(=O)(=O)c1ccc(-c2nc(C(F)(F)F)[nH]c2-c2ccc(F)cc2)cc1` [Example 21, 4-[5-(4-Fluorophenyl)-2-(trifluoromethyl)-1H-imidazol-4-yl]benzenesulfonamide]: the IC50 was determined as 10.8 µM.

Tested on in a further data set: not given
Assay: not given
Conditions: not given
As to `CS(=O)(=O)c1ccc(-c2nc(SCc3ccccc3)[nH]c2-c2ccc(F)cc2)cc1` [Example 8, 2-Benzylthio-5-(4-fluorophenyl)-4-[4-(methylsulfonyl)phenyl]-1H-imidazole], the melting point is 155 to 156 °C.

The compound `NS(=O)(=O)c1ccc(-c2nc(C(F)(F)F)[nH]c2-c2ccc(F)cc2)cc1` [Example 21, 4-[5-(4-Fluorophenyl)-2-(trifluoromethyl)-1H-imidazol-4-yl]benzenesulfonamide] had a melting point of 259 to 260 °C.

`COc1ccc(-c2nc(C(F)(F)F)[nH]c2-c2ccc(S(C)(=O)=O)cc2)cc1OC` [Example 41, 4-(3,4-Dimethoxyphenyl)-5-[4-(methylsulfonyl)phenyl]-2-(trifluoromethyl)-1H-imidazole]: the melting point was in the range of 221 to 224 °C.

Regarding `COc1ccc(-c2nc(C(F)(F)F)[nH]c2-c2ccc(S(C)(=O)=O)cc2)cc1C` [Example 42, 4-(4-Methoxy-3-methylphenyl)-5-[4-(methylsulfonyl)phenyl]-2-(trifluoromethyl)-1H-imidazole], the melting point was 265 to 267 °C. `Cn1c(C(F)(F)F)nc(-c2ccc(F)cc2)c1-c1ccc(S(C)(=O)=O)cc1` [Example 45, 4-(4-Fluorophenyl)-1-methyl-5-[4-(methylsulfonyl)phenyl]-2-(trifluoromethyl)-1H-imidazole] gave a melting point of 193 to 195 °C. `Cc1cc(C)cc(-c2[nH]c(C(F)(F)F)nc2-c2ccc(S(C)(=O)=O)cc2)c1` [Example 46, 5-(3,5-Dimethylphenyl)-4-[4-(methylsulfonyl)phenyl]-2-(trifluoromethyl)-1H-imidazole] returned a melting point of 255 to 257 °C. The same measure, in the same setting: the same measure for `COc1c(C)cc(-c2[nH]c(C(F)(F)F)nc2-c2ccc(S(C)(=O)=O)cc2)cc1C` [Example 52, 5-(3,5-Dimethyl-4-methoxyphenyl)-4-[4-(methylsulfonyl)phenyl]-2-(trifluoromethyl)-1H-imidazole]: 265 to 267 °C; for `Cc1cc(Cl)cc(-c2[nH]c(C(F)(F)F)nc2-c2ccc(S(C)(=O)=O)cc2)c1` [Example 54, 5-(3-Chloro-5-methylphenyl)-4-[-(methylsulfonyl)phenyl]-2-(trifluoromethyl)-1H-imidazole]: 260 to 262 °C.

On to `Cc1ccc(-c2[nH]c(C(F)(F)F)nc2-c2ccc(S(C)(=O)=O)cc2)cc1F` [Example 56, 5-(3-Fluoro-4-methylphenyl)-4-[4-(methylsulfonyl)phenyl]-2-(trifluoromethyl)-1H-imidazole], for which the melting point was in the range of 251 to 252 °C. As to `COc1ccc(-c2[nH]c(C(F)(F)F)nc2-c2ccc(S(C)(=O)=O)cc2)cc1Cl` [Example 57, 5-(3-Chloro-4-methoxyphenyl)-4-[4-(methylsulfonyl)phenyl]-2-(trifluoromethyl)-1H-imidazole], the melting point fell in the range of 288 to 291 °C. `Cc1ccc(-c2[nH]c(C(F)(F)F)nc2-c2ccc(S(C)(=O)=O)cc2)cc1C` [Example 61] registered a melting point of 279 to 284 °C. Regarding `COc1cccc(-c2[nH]c(C(F)(F)F)nc2-c2ccc(S(C)(=O)=O)cc2)c1` [Example 65, 5-(3-Methoxyphenyl)-4-[4-(methylsulfonyl)phenyl]-2-(trifluoromethyl)-1H-imidazole], the melting point lay within 202 to 208 °C.

As for `CS(=O)(=O)c1ccc(-c2nc(C(F)(F)F)[nH]c2-c2cccc(F)c2)cc1` [Example 66, 5-(3-Fluorophenyl)-4-[4-(methylsulfonyl)phenyl]-2-(trifluoromethyl)-1H-imidazole], the melting point was 225 to 229 °C. With `Cc1ccccc1-c1[nH]c(C(F)(F)F)nc1-c1ccc(S(C)(=O)=O)cc1` [Example 67, 5-(2-Methylphenyl)-4-[4-(methylsulfonyl)phenyl]-2-(trifluoromethyl)-1H-imidazole], the melting point was in the range of 180 to 190 °C. The same measure, in the same setting: in the case of `CS(=O)(=O)c1ccc(-c2nc(C(F)(F)F)[nH]c2-c2cccc(Cl)c2)cc1` [Example 68, 5-(3-Chlorophenyl)-4-[4-(methylsulfonyl)phenyl]-2-(trifluoromethyl)-1H-imidazole] it was 224 to 226 °C; in that of `CS(=O)(=O)c1ccc(-c2nc(C(F)(F)F)[nH]c2C2CCCCC2)cc1` [Example 69, 5-(Cyclohexyl)-4-[4-(methylsulfonyl)phenyl]-2-(trifluoromethyl)-1H-imidazole], 250 to 253 °C; in that of `Cc1cc(-c2[nH]c(C(F)(F)F)nc2-c2ccc(S(C)(=O)=O)cc2)ccc1Cl` [Example 71, 5-(4-Chloro-3-methylphenyl)-4-[4-(methylsulfonyl)phenyl]-2-(trifluoromethyl)-1H-imidazole], 261 to 264 °C.

`Cc1ccc(-c2[nH]c(C(F)(F)F)nc2-c2ccc(S(C)(=O)=O)cc2)cc1Cl` [Example 73, 5-(3-Chloro-4-methylphenyl)-4-[4-(methylsulfonyl)phenyl]-2-(trifluoromethyl)-1H-imidazole]: the melting point was 273 to 275 °C. `CS(=O)(=O)c1ccc(-c2nc(C(F)(F)F)[nH]c2C2CCCC2)cc1` [Example 75, 5-(Cyclopentyl)-4-[4-(methylsulfonyl)phenyl]-2-(trifluoromethyl)-1H-imidazole] returned a melting point of 210 to 212 °C. `CS(=O)(=O)c1ccc(-c2nc(C(F)(F)F)[nH]c2-c2ccsc2)cc1` [Example 76, 4-[4-(Methylsulfonyl)phenyl]-5-(3-thiophenyl)-2-(trifluoromethyl)-1H-imidazole] had a melting point of 230 to 232 °C. The compound `Cc1c(F)cccc1-c1[nH]c(C(F)(F)F)nc1-c1ccc(S(C)(=O)=O)cc1` [Example 77, 5-(3-Fluoro-2-methylphenyl)-4-[4-(methylsulfonyl)phenyl]-2-(trifluoromethyl)-1H-imidazole] gave a melting point of 192 to 196 °C.

In turn, `COc1cc(-c2[nH]c(C(F)(F)F)nc2-c2ccc(S(C)(=O)=O)cc2)ccc1Cl` [Example 78, 5-(4-Chloro-3-methoxyphenyl)-4-[4-(methylsulfonyl)phenyl]-2-(trifluoromethyl)-1H-imidazole] displayed a melting point of 233 to 234 °C. Compound `CS(=O)(=O)c1ccc(-c2nc(C(=O)Cc3ccccc3)[nH]c2-c2ccc(F)cc2)cc1` [Example 86, 1-[5-(4-Fluorophenyl)-4-[4-(methylsulfonyl)phenyl]-1H-imidazol-2-yl]-2-phenylethanone] came in with a melting point of 263.2 °C.
